The structures appear in SMILES notation. In brackets after ≈: the same amount, converted by molar mass.

One assay has as its system Staph. aur. 52. Put plainly: MIC, serial dilution on BHI agar (inocula replicating device). The format is cell-based. The note with it: 18 hrs. at 37° C., read-out: Minimum Inhibitory Concentration (MIC). How it is done: (§1) The procedure which is followed is the one recommended by the International Collaborative Study on Antibiotic Sensitivity Testing [Ericcson and Sherris, Acta. Pathologica et Microbiologia Scandinav, Supp. 217, Sections A and B: 64-68 (1971)], and employs brain heart infusion (BHI) agar and the inocula replicating device. Overnight growth tubes are diluted 100 fold for use as the standard inoculum (20,000-10,000 cells in approximately 0.002 ml. are placed on the agar surface; 20 ml. of BHI agar/dish). Twelve 2 fold dilutions of the test compound are employed, with initial concentration of the test drug being 200 mcg./ml. Single colonies are disregarded when reading plates after 18 hrs. at 37° C. The susceptibility (MIC) of the test organism is accepted as the lowest concentration of compound capable of producing complete inhibition of growth as judged by the naked eye. A comparison of the activity of 3"-epioleandomycin-Y 3",4"-carbonate and 4"-epioleandomycin-Y 3",4"-carbonate with that of parent oleandomycin-Y is recorded in the Table.

The next assay relates to Staph. aur. 400. Described as above. The format is cell-based. Conditions: 18 hrs. at 37° C., read-out: Minimum Inhibitory Concentration (MIC). Here is the method: as §1
In the next assay the test system is Strep. faec. 6. Described as above. The format is cell-based. The note with it: 18 hrs. at 37° C., read-out: Minimum Inhibitory Concentration (MIC). Here is the method:
as §1

A further assay relates to Strep. pneum. 2. The description is as above. The format is cell-based. The note with it: 18 hrs. at 37° C., read-out: Minimum Inhibitory Concentration (MIC). Here is the method: as §1
For another assay, the system named is Bac. sub. 1. Described as above. Conditions: 18 hrs. at 37° C., read-out: Minimum Inhibitory Concentration (MIC). Format: cell-based. Here is the method:
as §1

The test system of another assay is Strep. pyog. 203. Described as above. Conditions: 18 hrs. at 37° C., read-out: Minimum Inhibitory Concentration (MIC). The format is cell-based. How it is done:
as §1

For a further assay, the system named is Past. mult. Described as above. The note with it: 18 hrs. at 37° C., read-out: Minimum Inhibitory Concentration (MIC). The format is cell-based. How it is done: as §1
A further assay deals with Staph. aur. 5. Described as above. Format: cell-based. The note with it: 18 hrs. at 37° C., read-out: Minimum Inhibitory Concentration (MIC). How it is done:
as §1

The subject of a further assay is Staph. epi. 111. Described as above. Format: cell-based. The note with it: 18 hrs. at 37° C., read-out: Minimum Inhibitory Concentration (MIC). Here is the method: as §1
A further assay deals with bacteria. The note with it: background statement on the byproduct; cited from earlier work.

For `C[C@@H]1[C@@H](O[C@@H]2O[C@H](C)C[C@H](N(C)C)[C@H]2O)[C@@H](C)C[C@@]2(CO2)C(=O)[C@H](C)[C@@H](O)[C@@H](C)[C@@H](C)OC(=O)[C@H](C)[C@H]1O[C@H]1C[C@H]2OC(=O)O[C@H]2[C@H](C)O1` [IIa, 3"-epioleandomycin-Y 3",4"-carbonate], the MIC worked out at 3.12 µg/mL (≈ 4.46 µM) with Staph. aur. 52; 6.25 µg/mL (≈ 8.93 µM) with Staph. aur. 400; 3.12 µg/mL (≈ 4.46 µM) in the assay with Strep. faec. 6; 0.39 µg/mL (≈ 0.557 µM) in the assay with Strep. pneum. 2; 0.78 µg/mL (≈ 1.11 µM) in the assay on Bac. sub. 1; 3.12 µg/mL (≈ 4.46 µM) in the assay with Strep. pyog. 203. The MIC in the assay with Past. mult. was found to be 50 µg/mL (≈ 71.4 µM); in the assay with Staph. aur. 5 it was 3.12 µg/mL (≈ 4.46 µM); in the assay with Staph. epi. 111, 1.56 µg/mL (≈ 2.23 µM).
As to `C[C@@H]1[C@@H](O[C@@H]2O[C@H](C)C[C@H](N(C)C)[C@H]2O)[C@@H](C)C[C@@]2(CO2)C(=O)[C@H](C)[C@@H](O)[C@@H](C)[C@@H](C)OC(=O)[C@H](C)[C@H]1O[C@H]1C[C@@H]2OC(=O)O[C@@H]2[C@H](C)O1` [IIb, 4"-epioleandomycin-Y 3",4"-carbonate], the MIC is 12.5 µg/mL (≈ 17.9 µM) with Staph. aur. 52; 12.5 µg/mL (≈ 17.9 µM) in the assay on Staph. aur. 400; 12.5 µg/mL (≈ 17.9 µM) in the assay on Strep. faec. 6; 0.78 µg/mL (≈ 1.11 µM) with Strep. pneum. 2; 3.12 µg/mL (≈ 4.46 µM) with Bac. sub. 1; 3.12 µg/mL (≈ 4.46 µM) in the assay on Strep. pyog. 203. In addition, the MIC was found to be 12.5 µg/mL (≈ 17.9 µM) in the assay with Staph. aur. 5 and 6.25 µg/mL (≈ 8.93 µM) in the assay with Staph. epi. 111.
For `C[C@@H]1[C@@H](O[C@@H]2O[C@H](C)C[C@H](N(C)C)[C@H]2O)[C@@H](C)C[C@@]2(CO2)C(=O)[C@H](C)[C@@H](O)[C@@H](C)[C@@H](C)OC(=O)[C@H](C)[C@H]1O[C@H]1C[C@H](O)[C@@H](O)[C@H](C)O1` [I, O-demethyloleandomycin], the “antibacterial activity (in words)” value in the assay with bacteria is given as “relatively low antibacterial activity”. Further, the MIC stood at 50 µg/mL (≈ 74.2 µM) in the assay on Staph. aur. 52; 12.5 µg/mL (≈ 18.6 µM) in the assay with Staph. aur. 400; 6.25 µg/mL (≈ 9.28 µM) in the assay with Strep. faec. 6; 0.78 µg/mL (≈ 1.16 µM) in the assay with Strep. pneum. 2; 6.25 µg/mL (≈ 9.28 µM) with Bac. sub. 1; 1.56 µg/mL (≈ 2.32 µM) in the assay on Strep. pyog. 203. The MIC in the assay on Staph. aur. 5 came to 50 µg/mL (≈ 74.2 µM); in the assay on Staph. epi. 111 it was 6.25 µg/mL (≈ 9.28 µM).
